Test results reported in patent US7851474B2, “Dipiperazinyl ketones and related analogues” (Neurogen Corporation, priority 2005, dated 2010).
Like-named read-outs stand apart in the source and are kept apart here.

Biological target: T1, chimeric human H3 receptor (Homo sapiens, UniProt Q9Y5N1, E19D)
T1 construct: made in house; host or cells: Sf9 insect cells (baculovirus infection); P2 membrane preparation
Assay: Chimeric human H3 receptor GTP binding assay (agonist-stimulated GTP-gamma35S binding, Example 7)
Format: biochemical
Details: read-out: Ki
In short: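 Sf9 membranes co-expressing the chimeric receptor and heterotrimeric G-protein subunits, 35 μg protein per tube, in pH 7.4 Tris buffer with 10 μM GDP. Test compounds at 10^−10 to 10^−6 M with 1 μM histamine, 60 min at room temperature. Filter-bound GTP-gamma^35S read by scintillation; IC50 from non-linear regression of dose-response curves.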

[1] = assay of Example 7, "*" in Ki of Table II
[2] = Table II, assay of Example 7, "*" in Ki
[3] = assay of Example 7, symbol * in column headed Ki of Table II
[4] = Table II, "*" in Ki, assay of Example 7
[5] = Table II "Ki", symbol "*": Ki in the assay of Example 7

T1 sequence (Q9Y5N1 with tags, fused parts or gaps E19D): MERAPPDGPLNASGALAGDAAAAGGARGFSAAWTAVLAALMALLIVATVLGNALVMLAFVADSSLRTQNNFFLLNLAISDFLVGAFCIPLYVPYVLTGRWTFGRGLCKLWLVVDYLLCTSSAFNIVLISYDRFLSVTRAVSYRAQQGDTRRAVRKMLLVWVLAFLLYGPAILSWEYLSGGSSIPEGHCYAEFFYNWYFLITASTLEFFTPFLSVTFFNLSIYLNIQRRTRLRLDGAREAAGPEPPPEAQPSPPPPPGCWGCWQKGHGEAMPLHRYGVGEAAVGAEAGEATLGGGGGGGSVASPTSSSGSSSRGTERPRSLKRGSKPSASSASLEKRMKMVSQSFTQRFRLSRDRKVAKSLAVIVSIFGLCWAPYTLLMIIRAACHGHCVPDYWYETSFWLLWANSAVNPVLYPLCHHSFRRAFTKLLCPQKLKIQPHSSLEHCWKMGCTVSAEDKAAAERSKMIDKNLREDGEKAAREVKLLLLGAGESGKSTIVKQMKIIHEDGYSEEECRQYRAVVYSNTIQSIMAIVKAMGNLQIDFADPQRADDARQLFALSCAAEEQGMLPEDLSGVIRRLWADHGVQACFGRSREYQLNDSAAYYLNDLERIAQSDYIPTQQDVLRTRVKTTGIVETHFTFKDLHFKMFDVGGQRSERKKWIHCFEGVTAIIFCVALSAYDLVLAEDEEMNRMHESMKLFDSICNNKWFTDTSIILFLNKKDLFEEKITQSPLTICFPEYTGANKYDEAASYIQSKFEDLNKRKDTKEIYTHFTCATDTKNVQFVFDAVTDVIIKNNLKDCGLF

Structure (SMILES): O=C(NC1CCN(CC(=O)N2CCN(C3CCC3)CC2)CC1)c1ccc(Oc2ccccc2)cc1 [Compound 1224, N-{1-[2-(4-cyclobutylpiperazin-1-yl)-2-oxoethyl]piperidin-4-yl}-4-phenoxybenzamide]
- Ki [1]: < 1 µM

Structure (SMILES): CCC(C)NC(=O)c1cccc(N2CCN(CC(=O)N3CCN(C4CCC4)CC3)CC2)c1 (stereo not shown) [Compound 1203, N-(sec-butyl)-3-{4-[2-(4-cyclobutylpiperazin-1-yl)-2-oxoethyl]piperazin-1-yl}benzamide]
- Ki [1]: < 1 µM

Structure (SMILES): COc1ccccc1-c1ccc(N2CCN(CC(=O)N3CCN(C4CCC4)CC3)CC2)nn1 [Compound 1039, 3-{4-[2-(4-cyclobutylpiperazin-1-yl)-2-oxoethyl]piperazin-1-yl}-6-(2-methoxyphenyl) pyridazine]
- Ki [2]: < 1 µM

Structure (SMILES): COc1ccccc1-c1cnc(N2CCN(CC(=O)N3CCN(C4CCC4)CC3)CC2)cn1 [Compound 951, 2-{4-[2-(4-cyclobutylpiperazin-1-yl)-2-oxoethyl]piperazin-1-yl}-5-(2-methoxyphenyl)pyrazine]
- Ki [2]: < 1 µM

Structure (SMILES): CC1CCN(C2CCN(CC(=O)N3CCN(C4CCC4)CC3)CC2)CC1 [Compound 428, 1′-[2-(4-cyclobutylpiperazin-1-yl)-2-oxoethyl]-4-methyl-1,4′-bipiperidine]
- Ki [3]: < 1 µM

Structure (SMILES): Cc1nc(-c2ccc(N3CCN(CC(=O)N4CCN(C5CCC5)CC4)CC3)cc2)no1 [Compound 595, 1-cyclobutyl-4-({4-[4-(5-methyl-1,2,4-oxadiazol-3-yl)phenyl]piperazin-1-yl}acetyl)piperazine]
- Ki [4]: < 1 µM

Structure (SMILES): COc1cc(F)c(-c2ccc(N3CCN(CC(=O)N4CCN(C5CCC5)CC4)CC3)nn2)cc1F [Compound 1028, 3-{4-[2-(4-cyclobutylpiperazin-1-yl)-2-oxoethyl]piperazin-1-yl}-6-(2,5-difluoro-4-methoxyphenyl) pyridazine]
- Ki [2]: < 1 µM

Structure (SMILES): CCC(C)N1CCN(C(=O)CN2CCN(c3ncc(F)cn3)CC2)CC1 (stereo not shown) [Compound 979, 2-{4-[2-(4-sec-butylpiperazin-1-yl)-2-oxoethyl]piperazin-1-yl}-5-fluoropyrimidine]
- Ki [2]: < 1 µM

Structure (SMILES): CC1CCCCN1C(=O)c1ccc(N2CCN(CC(=O)N3CCN(C4CCC4)CC3)CC2)nc1 (stereo not shown) [Compound 651, 1-cyclobutyl-4-[(4-{5-[(2-methylpiperidin-1-yl)carbonyl]pyridin-2-yl}piperazin-1-yl)acetyl]piperazine]
- Ki [4]: < 1 µM

Structure (SMILES): O=C(CN1CCN(c2ccc(-c3ccc4c(c3)OCCO4)cc2)CC1)N1CCN(C2CCC2)CC1 [Compound 592, 1-cyclobutyl-4-({4-[4-(2,3-dihydro-1,4-benzodioxin-6-yl)phenyl]piperazin-1-yl}acetyl)piperazine]
- Ki [4]: < 1 µM

Structure (SMILES): CCCNC(=O)c1ccc(N2CCN(CC(=O)N3CCN(C4CCC4)CC3)CC2)nc1 [Compound 1175, 6-{4-[2-(4-cyclobutylpiperazin-1-yl)-2-oxoethyl]piperazin-1-yl}-N-propylnicotinamide]
- Ki [1]: < 1 µM

Structure (SMILES): CCOc1cccc(-c2cnc(N3CCN(CC(=O)N4CCN(C5CCC5)CC4)CC3)cn2)c1 [Compound 935, 2-{4-[2-(4-cyclobutylpiperazin-1-yl)-2-oxoethyl]piperazin-1-yl}-5-(3-ethoxyphenyl)pyrazine]
- Ki [5]: < 1 µM

Structure (SMILES): O=C(NC1CC1)c1ccc(N2CCN(CC(=O)N3CCN(C4CCC4)CC3)CC2)cc1 [Compound 1138, 4-{4-[2-(4-cyclobutylpiperazin-1-yl)-2-oxoethyl]piperazin-1-yl}-N-cyclopropylbenzamide]
- Ki [1]: < 1 µM

Structure (SMILES): COc1ccc(-c2cnc(N3CCN(CC(=O)N4CCN(C5CCC5)CC4)CC3)cn2)cc1C [Compound 948, 2-{4-[2-(4-cyclobutylpiperazin-1-yl)-2-oxoethyl]piperazin-1-yl}-5-(4-methoxy-3-methylphenyl)pyrazine]
- Ki [2]: < 1 µM

Structure (SMILES): CCCS(=O)(=O)c1ccc(N2CCN(CC(=O)N3CCN(C4CCC4)CC3)CC2)cc1 [Compound 602, 1-cyclobutyl-4-({4-[4-(propylsulfonyl)phenyl]piperazin-1-yl}acetyl)piperazine]
- Ki [4]: < 1 µM

Structure (SMILES): O=C(CN1CCN(c2cnc(-c3ccc(F)c(F)c3)cn2)CC1)N1CCN(C2CCC2)CC1 [Compound 962, 2-{4-[2-(4-cyclobutylpiperazin-1-yl)-2-oxoethyl]piperazin-1-yl}-5-(3,4-difluorophenyl)pyrazine]
- Ki [2]: < 1 µM

Structure (SMILES): COc1ccc(N2CCN(CC(=O)N3CCN(C(C)C)CC3)CC2C)cc1 (stereo not shown) [Compound 1111, 4-[2-(4-isopropylpiperazin-1-yl)-2-oxoethyl]-1-(4-methoxyphenyl)-2-methylpiperazine]
- Ki [2]: < 1 µM

Structure (SMILES): COc1ccc(N2CCN(CC(=O)N3CCN(C(C)C)CC3)CC2)cc1OC [Compound 285, 1-(3,4-dimethoxyphenyl)-4-[2-(4-isopropylpiperazin-1-yl)-2-oxoethyl]piperazine]
- Ki [3]: < 1 µM

Structure (SMILES): O=C(NCC1CCCCC1)c1cccc(N2CCN(CC(=O)N3CCN(C4CCC4)CC3)CC2)c1 [Compound 1084, 3-{4-[2-(4-cyclobutylpiperazin-1-yl)-2-oxoethyl]piperazin-1-yl}-N-(cyclohexylmethyl) benzamide]
- Ki [2]: < 1 µM

Structure (SMILES): O=C(CN1CCN(c2ccc(-c3cc(Cl)cc(Cl)c3)nn2)CC1)N1CCN(C2CCC2)CC1 [Compound 1050, 3-{4-[2-(4-cyclobutylpiperazin-1-yl)-2-oxoethyl]piperazin-1-yl}-6-(3,5-dichlorophenyl)pyridazine]
- Ki [2]: < 1 µM

Structure (SMILES): CC(C)NC(=O)c1ccc(N2CCN(CC(=O)N3CCN(C4CCC4)CC3)CC2)cc1 [Compound 1140, 4-{4-[2-(4-cyclobutylpiperazin-1-yl)-2-oxoethyl]piperazin-1-yl}-N-isopropylbenzamide]
- Ki [1]: < 1 µM

Structure (SMILES): CC(=O)c1ccc(N2CCN(CC(=O)N3CCN(C4CCC4)CC3)CC2=O)cc1 [Compound 333, 1-(4-acetylphenyl)-4-[2-(4-cyclobutylpiperazin-1-yl)-2-oxoethyl]piperazin-2-one]
- Ki [3]: < 1 µM

Structure (SMILES): O=C(CN1CCN(c2ccc(-c3ccccc3F)cc2)CC1)N1CCN(C2CCC2)CC1 [Compound 707, 1-cyclobutyl-4-{[4-(2′-fluorobiphenyl-4-yl)piperazin-1-yl]acetyl}piperazine]
- Ki [4]: < 1 µM

Structure (SMILES): CC(C)N1C(=O)c2ccccc2C12CCN(CC(=O)N1CCN(C3CCC3)CC1)CC2 [Compound 426, 1-[2-(4-cyclobutylpiperazin-1-yl)-2-oxoethyl]-2-isopropylspiro[isoindole-1,4′-piperidin]-3(2H)-one]
- Ki [3]: < 1 µM

Structure (SMILES): Cc1cccc(C)c1-c1ccc(N2CCN(CC(=O)N3CCN(C4CCC4)CC3)CC2)cc1 [Compound 697, 1-cyclobutyl-4-{[4-(2′,6′-dimethylbiphenyl-4-yl)piperazin-1-yl]acetyl}piperazine]
- Ki [4]: < 1 µM

Structure (SMILES): Cc1ccc(N2CCN(CC(=O)N3CCN(C(C)C)CC3)CC2)cc1 [Compound 850, 1-isopropyl-4-{[4-(4-methylphenyl)piperazin-1-yl]acetyl}piperazine]
- Ki [5]: < 1 µM

Structure (SMILES): COc1cc(F)c(-c2cnc(N3CCN(CC(=O)N4CCN(C5CCC5)CC4)CC3)cn2)cc1F [Compound 940, 2-{4-[2-(4-cyclobutylpiperazin-1-yl)-2-oxoethyl]piperazin-1-yl}-5-(2,5-difluoro-4-methoxyphenyl)pyrazine]
- Ki [2]: < 1 µM

Structure (SMILES): CS(=O)(=O)c1ccc(N2CCN(CC(=O)N3CCN(C4CCC4)CC3)CC2)c(F)c1 [Compound 581, 1-cyclobutyl-4-({4-[2-fluoro-4-(methylsulfonyl)phenyl]piperazin-1-yl}acetyl)piperazine]
- Ki [4]: < 1 µM

Structure (SMILES): CN(C)C(=O)c1ccc(N2CCN(CC(=O)N3CCN(C4CCC4)CC3)CC2)cc1 [Compound 1123, 4-{1-[2-(4-cyclobutylpiperazin-1-yl)-2-oxoethyl]piperazin-1-yl}-N,N-dimethylbenzamide]
- Ki [2]: < 1 µM

Structure (SMILES): COc1cc(N2CCN(CC(=O)N3CCN(C4CCCCC4)CC3)CC2)ccc1Cl [Compound 345, 1-(4-chloro-3-methoxyphenyl)-4-[2-(4-cyclohexylpiperazin-1-yl)-2-oxoethyl]piperazine]
- Ki [3]: < 1 µM

Structure (SMILES): N#Cc1ccc(N2CCN(CC(=O)N3CCN(C4CCCCC4)CC3)CC2)cc1 [Compound 1147, 4-{4-[2-(4-cyclohexylpiperazin-1-yl)-2-oxoethyl]piperazin-1-yl}benzonitrile]
- Ki [1]: < 1 µM

Structure (SMILES): CCN(CC)C1CCN(CC(=O)N2CCN(C(C)C)CC2)C1 (stereo not shown) [Compound 1206, N,N-diethyl-1-[2-(4-isopropylpiperazin-1-yl)-2-oxoethyl]pyrrolidin-3-amine]
- Ki [1]: < 1 µM

Structure (SMILES): O=C(CN1CCN(c2cnc(-c3cccc(C(F)(F)F)c3)cn2)CC1)N1CCN(C2CCC2)CC1 [Compound 976, 2-{4-[2-(4-cyclobutylpiperazin-1-yl)-2-oxoethyl]piperazin-1-yl}-5-[3-(trifluoromethyl)phenyl] pyrazine]
- Ki [2]: < 1 µM

Structure (SMILES): CC(C)N1CCN(C(=O)CN2CCN(c3ccc(C(F)(F)F)cn3)CC2C)CC1 (stereo not shown) [Compound 445, 1-[2-(4-isopropylpiperazin-1-yl)-2-oxoethyl]-2-methyl-4-[5-(trifluoromethyl)pyridin-2-yl]piperazine]
- Ki ("*" in Ki of Table II, assay of Example 7): < 1 µM

Structure (SMILES): CC(=O)c1ccc(N2CCN(CC(=O)N3CCN(C4CCCC4)CC3)CC2)cc1 [Compound 327, 1-(4-{4-[2-(4-cyclopentylpiperazin-1-yl)-2-oxoethyl]piperazin-1-yl}phenyl)ethanone]
- Ki [3]: < 1 µM

Structure (SMILES): N#Cc1cccc(-c2cnc(N3CCN(CC(=O)N4CCN(C5CCC5)CC4)CC3)cn2)c1 [Compound 994, 3-(5-{4-[2-(4-cyclobutylpiperazin-1-yl)-2-oxoethyl]piperazin-1-yl}pyrazin-2-yl)benzonitrile]
- Ki [2]: < 1 µM

Structure (SMILES): CCOc1cccc(C(=O)NC2CCN(CC(=O)N3CCN(C4CCC4)CC3)CC2)c1 [Compound 1213, N-{1-[2-(4-cyclobutylpiperazin-1-yl)-2-oxoethyl]piperidin-4-yl}-3-ethoxybenzamide]
- Ki [1]: < 1 µM
